Laboratory results published in PMC10033419, “Blocking NS3–NS4B interaction inhibits dengue virus in non-human primates” (Nature, 2023).

Tested on: DENV-1/45AZ5
Test: NHP DENV-1 study, serum viral RNA RT-qPCR
Format: in vivo, rhesus macaques
Conditions: for qRT-PCR Assay Average GE/mL: LOQ 100 GE/reaction
Procedure: WRAIR is fully accredited by AAALAC International.
Serum samples from macaques were checked for the presence of DENV-1 RNA. Viral RNA for RT–qPCR was extracted from 100–200 µl of serum using the QIAcube instrumentation and the QIAGEN Viral RNA extraction kits. The primers and fluorogenic probes used in the RT–qPCR assays have been previously described[63],[64]. DENV-1 RNA was detected in a 25 µl reaction containing 5 µl of extracted RNA sample, 10 pmol of dengue-specific primers and 5 pmol dengue probe in the reaction mixture from Superscript Ill Platinum One-Step Quantitative RT-PCR Kit (Invitrogen, Thermo Fisher Scientific), consisting of 0.5 µl Superscript III RT/Platinum mix, 12.5 µl 2× reaction mix and 0.05 µl ROX reference dye. The one-step RT–qPCR comprises a 30 min RT step at 50 °C and 2 min of Taq polymerase activation at 94 °C, followed by 40 cycles of PCR at 94 °C for 5 s and 53 °C for 35 s performed in an ABI 7500DX Fast Real Time PCR system. Each assay included positive, negative and non-template controls. The RNA copy number was calculated from a standard curve of tenfold serial dilutions made from RNA in vitro transcripts consisting of DENV-1 with known copy numbers. The LLOQ was 100 genomic copies per reaction.
This sample size was sufficient to detect a significant difference in the number of infected animals in each of the groups as low as 83%. […] Sample processing and conducting of assays was performed by laboratory technicians not involved in the treatment/manipulation of the animals.

## COc1cc(N[C@H](C(=O)c2c[nH]c3ccc(OC(F)(F)F)cc23)c2ccc(Cl)cc2OC)cc(S(C)(=O)=O)c1 [JNJ-1802]
6 mg per kg per day q.d.
  DENV RNA: remained undetectable during the complete study period
Animal R7, Day 0
  qRT-PCR Assay Result: Negative
  qRT-PCR Assay Average GE/mL: 0.00E+00 GE/mL
Animal R7, Day 1
  qRT-PCR Assay Result: Negative
  qRT-PCR Assay Average GE/mL: 0.00E+00 GE/mL
Animal R7, Day 2
  qRT-PCR Assay Result: Negative
  qRT-PCR Assay Average GE/mL: 0.00E+00 GE/mL
Animal R7, Day 3
  qRT-PCR Assay Result: Negative
  qRT-PCR Assay Average GE/mL: 0.00E+00 GE/mL
Animal R7, Day 4
  qRT-PCR Assay Result: Negative
  qRT-PCR Assay Average GE/mL: 0.00E+00 GE/mL
Animal R7, Day 5
  qRT-PCR Assay Result: Negative
  qRT-PCR Assay Average GE/mL: 0.00E+00 GE/mL
Animal R7, Day 6
  qRT-PCR Assay Result: Negative
  qRT-PCR Assay Average GE/mL: 0.00E+00 GE/mL
Animal R7, Day 7
  qRT-PCR Assay Result: Negative
  qRT-PCR Assay Average GE/mL: 0.00E+00 GE/mL
Animal R7, Day 8
  qRT-PCR Assay Result: Negative
  qRT-PCR Assay Average GE/mL: 0.00E+00 GE/mL
Animal R7, Day 9
  qRT-PCR Assay Result: Negative
  qRT-PCR Assay Average GE/mL: 0.00E+00 GE/mL
Animal R7, Day 10
  qRT-PCR Assay Result: Negative
  qRT-PCR Assay Average GE/mL: 0.00E+00 GE/mL
Animal R7, Day 11
  qRT-PCR Assay Result: Negative
  qRT-PCR Assay Average GE/mL: 0.00E+00 GE/mL
Animal R7, Day 14
  qRT-PCR Assay Result: Negative
  qRT-PCR Assay Average GE/mL: 0.00E+00 GE/mL
Animal R7, Day 29
  qRT-PCR Assay Result: Negative
  qRT-PCR Assay Average GE/mL: 0.00E+00 GE/mL
Animal R8, Day 0
  qRT-PCR Assay Result: Negative
  qRT-PCR Assay Average GE/mL: 0.00E+00 GE/mL
Animal R8, Day 1
  qRT-PCR Assay Result: Negative
  qRT-PCR Assay Average GE/mL: 0.00E+00 GE/mL
Animal R8, Day 2
  qRT-PCR Assay Result: Negative
  qRT-PCR Assay Average GE/mL: 0.00E+00 GE/mL
Animal R8, Day 3
  qRT-PCR Assay Result: Negative
  qRT-PCR Assay Average GE/mL: 0.00E+00 GE/mL
Animal R8, Day 4
  qRT-PCR Assay Result: Negative
  qRT-PCR Assay Average GE/mL: 0.00E+00 GE/mL
Animal R8, Day 5
  qRT-PCR Assay Result: Negative
  qRT-PCR Assay Average GE/mL: 0.00E+00 GE/mL
Animal R8, Day 6
  qRT-PCR Assay Result: Negative
  qRT-PCR Assay Average GE/mL: 0.00E+00 GE/mL
Animal R8, Day 7
  qRT-PCR Assay Result: Negative
  qRT-PCR Assay Average GE/mL: 0.00E+00 GE/mL
Animal R8, Day 8
  qRT-PCR Assay Result: Negative
  qRT-PCR Assay Average GE/mL: 0.00E+00 GE/mL
Animal R8, Day 9
  qRT-PCR Assay Result: Negative
  qRT-PCR Assay Average GE/mL: 0.00E+00 GE/mL
Animal R8, Day 10
  qRT-PCR Assay Result: Negative
  qRT-PCR Assay Average GE/mL: 0.00E+00 GE/mL
Animal R8, Day 11
  qRT-PCR Assay Result: Negative
  qRT-PCR Assay Average GE/mL: 0.00E+00 GE/mL
Animal R8, Day 14
  qRT-PCR Assay Result: Negative
  qRT-PCR Assay Average GE/mL: 0.00E+00 GE/mL
Animal R8, Day 29
  qRT-PCR Assay Result: Negative
  qRT-PCR Assay Average GE/mL: 0.00E+00 GE/mL
Animal R9, Day 0
  qRT-PCR Assay Result: Negative
  qRT-PCR Assay Average GE/mL: 0.00E+00 GE/mL
Animal R9, Day 1
  qRT-PCR Assay Result: Negative
  qRT-PCR Assay Average GE/mL: 0.00E+00 GE/mL
Animal R9, Day 2
  qRT-PCR Assay Result: Negative
  qRT-PCR Assay Average GE/mL: 0.00E+00 GE/mL
Animal R9, Day 3
  qRT-PCR Assay Result: Negative
  qRT-PCR Assay Average GE/mL: 0.00E+00 GE/mL
Animal R9, Day 4
  qRT-PCR Assay Result: Negative
  qRT-PCR Assay Average GE/mL: 0.00E+00 GE/mL
Animal R9, Day 5
  qRT-PCR Assay Result: Negative
  qRT-PCR Assay Average GE/mL: 0.00E+00 GE/mL
Animal R9, Day 6
  qRT-PCR Assay Result: Negative
  qRT-PCR Assay Average GE/mL: 0.00E+00 GE/mL
Animal R9, Day 7
  qRT-PCR Assay Result: Negative
  qRT-PCR Assay Average GE/mL: 0.00E+00 GE/mL
Animal R9, Day 8
  qRT-PCR Assay Result: Negative
  qRT-PCR Assay Average GE/mL: 0.00E+00 GE/mL
Animal R9, Day 9
  qRT-PCR Assay Result: Negative
  qRT-PCR Assay Average GE/mL: 0.00E+00 GE/mL
Animal R9, Day 10
  qRT-PCR Assay Result: Negative
  qRT-PCR Assay Average GE/mL: 0.00E+00 GE/mL
Animal R9, Day 11
  qRT-PCR Assay Result: Negative
  qRT-PCR Assay Average GE/mL: 0.00E+00 GE/mL
Animal R9, Day 14
  qRT-PCR Assay Result: Negative
  qRT-PCR Assay Average GE/mL: 0.00E+00 GE/mL
Animal R9, Day 29
  qRT-PCR Assay Result: Negative
